In ChEMBL document CHEMBL5390287, “Discovery of a Tritiated Radioligand with High Affinity and Selectivity for the Histamine H3 Receptor” (ACS Med Chem Lett, 2023):
Activity calls are given as the source filed them. The calls are words filed in the database; no cut-off is given here.

Experiments:
Histamine H3 receptor [1] = target: T1, Histamine H3 receptor (Homo sapiens, UniProt Q9Y5N1); test: Displacement of UR-NR266 from NLuc-tagged human histamine H3 receptor expressed in HEK293T cells assessed as inhibition constant incubated for 5 mins followed by UR-NR266 addition by furimazine based NanoBRET competition binding assay; type: cell-based
Histamine H1 receptor = Histamine H1 receptor (Homo sapiens, UniProt P35367); test: Displacement of [3H]mepyramine from SP-FLAG tagged human histamine H1 receptor expressed in HEK293T cells assessed as inhibition constant incubated for 60 min by scintillation counter analysis; type: cell-based
Histamine H2 receptor = Histamine H2 receptor (Homo sapiens, UniProt P25021); test: Displacement of [3H]UR-KAT479 from SP-FLAG tagged human histamine H2 receptor expressed in HEK293T cells assessed as inhibition constant incubated for 60 min by scintillation counter analysis; type: cell-based
Histamine H3 receptor [2] = target: T1, Histamine H3 receptor; test: Displacement of [3H]UR-MN259 from SP-FLAG tagged human histamine H3 receptor expressed in HEK293T cells assessed as inhibition constant incubated for 60 min by scintillation counter analysis; type: cell-based
Histamine H4 receptor = Histamine H4 receptor (Homo sapiens, UniProt Q9H3N8); test: Displacement of [3H]histamine from SP-FLAG tagged human histamine H4 receptor expressed in HEK293T cells assessed as inhibition constant incubated for 60 min by scintillation counter analysis; type: cell-based
Homo sapiens [3] = species on record: Homo sapiens; test: Selectivity ratio of Ki for human histamine H1 receptor to Ki for human histamine H3 receptor
Homo sapiens [4] = species on record: Homo sapiens; test: Selectivity ratio of Ki for human histamine H2 receptor to Ki for human histamine H3 receptor
Homo sapiens [5] = species on record: Homo sapiens; test: Selectivity ratio of Ki for human histamine H4 receptor to Ki for human histamine H3 receptor
Histamine H3 receptor [6] = target: T1, Histamine H3 receptor; test: Antagonist activity at human histamine H3 receptor in HEK293T cells expressing H3R-NlucC/NlucN-mGsi construct using furimazine as substrate assessed as displacement of histamine by MiniG recruitment assay; type: functional, cell-based; settings: filed as antagonist
Histamine H3 receptor [7] = target: T1, Histamine H3 receptor; test: Binding affinity to SP-FLAG tagged human histamine H3 receptor expressed in HEK293T cells; type: cell-based; settings: tested as the 3H-labelled form
Histamine H3 receptor [8] = target: T1, Histamine H3 receptor; test: Binding affinity to SP-FLAG tagged human histamine H3 receptor expressed in HEK293T cells assessed as association time constant incubated for 60 mins by scintillation counting analysis; type: cell-based; settings: tested as the 3H-labelled form
Histamine H3 receptor [9] = target: T1, Histamine H3 receptor; test: Binding affinity to SP-FLAG tagged human histamine H3 receptor expressed in HEK293T cells assessed as dissociation rate constant incubated for 30 mins by scintillation counting analysis; type: cell-based; settings: tested as the 3H-labelled form
Histamine H3 receptor [10] = target: T1, Histamine H3 receptor; test: Binding affinity to SP-FLAG tagged human histamine H3 receptor expressed in HEK293T cells assessed as dissociation time constant incubated for 30 mins by scintillation counting analysis; type: cell-based; settings: tested as the 3H-labelled form
Histamine H3 receptor [11] = target: T1, Histamine H3 receptor; test: Binding affinity to SP-FLAG tagged human histamine H3 receptor expressed in HEK293T cells assessed as association rate constant incubated for 60 mins by scintillation counting analysis; type: cell-based; settings: tested as the 3H-labelled form
Histamine H3 receptor [12] = target: T1, Histamine H3 receptor; test: Agonist activity at human histamine H3 receptor in HEK293T cells expressing H3R-NlucC/NlucN-mGsi construct using furimazine as substrate upto 10 uM by MiniG recruitment assay; type: functional, cell-based
Histamine H3 receptor [13] = target: T1, Histamine H3 receptor; test: Binding affinity to SP-FLAG tagged human histamine H3 receptor expressed in HEK293T cells assessed as maximum binding; type: cell-based; settings: tested as the 3H-labelled form
Histamine H3 receptor [14] = target: T1, Histamine H3 receptor; test: Binding affinity to SP-FLAG tagged human histamine H3 receptor expressed in HEK293T cells using sodium containing Leibovitz's L-15 medium incubated for 60 min by scintillation counter analysis; type: cell-based
Histamine H3 receptor [15] = target: T1, Histamine H3 receptor; test: Binding affinity to SP-FLAG tagged human histamine H3 receptor expressed in HEK293T cells assessed as dissociation constant by incubated for 30 mins by scintillation counting analysis; type: cell-based
Histamine H3 receptor [16] = target: T1, Histamine H3 receptor; test: Binding affinity to SP-FLAG tagged human histamine H3 receptor expressed in HEK293T cells assessed as kinetic dissociation constant incubated for 30 mins by scintillation counting analysis; type: cell-based

T1 sequence (Q9Y5N1 whole entry): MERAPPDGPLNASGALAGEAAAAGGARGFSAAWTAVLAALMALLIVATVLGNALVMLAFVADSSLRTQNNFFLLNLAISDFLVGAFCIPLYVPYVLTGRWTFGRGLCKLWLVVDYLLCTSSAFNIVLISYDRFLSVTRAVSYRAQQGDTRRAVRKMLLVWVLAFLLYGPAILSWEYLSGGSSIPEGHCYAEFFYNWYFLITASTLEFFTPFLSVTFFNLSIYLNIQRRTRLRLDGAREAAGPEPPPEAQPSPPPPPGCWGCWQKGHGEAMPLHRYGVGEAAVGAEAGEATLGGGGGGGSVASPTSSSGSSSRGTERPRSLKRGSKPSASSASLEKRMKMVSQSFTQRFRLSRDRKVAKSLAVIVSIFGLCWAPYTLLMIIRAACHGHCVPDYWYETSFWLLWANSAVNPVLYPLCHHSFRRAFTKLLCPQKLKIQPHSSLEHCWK
Chain of Histamine H1 receptor (P35367 whole entry): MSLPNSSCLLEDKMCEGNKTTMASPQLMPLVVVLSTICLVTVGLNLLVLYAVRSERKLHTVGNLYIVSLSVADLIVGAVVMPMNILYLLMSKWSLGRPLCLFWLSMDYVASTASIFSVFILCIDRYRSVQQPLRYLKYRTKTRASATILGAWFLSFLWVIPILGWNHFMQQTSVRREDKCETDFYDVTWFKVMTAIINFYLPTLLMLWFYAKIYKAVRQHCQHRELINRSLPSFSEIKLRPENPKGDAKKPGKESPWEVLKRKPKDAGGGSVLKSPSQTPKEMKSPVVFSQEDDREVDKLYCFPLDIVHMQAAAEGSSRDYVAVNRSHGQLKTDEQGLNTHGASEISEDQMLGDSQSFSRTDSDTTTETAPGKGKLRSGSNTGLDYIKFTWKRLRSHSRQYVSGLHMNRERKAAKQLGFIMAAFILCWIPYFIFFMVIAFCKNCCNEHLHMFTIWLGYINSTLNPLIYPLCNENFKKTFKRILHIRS
Chain of Histamine H2 receptor (P25021 whole entry): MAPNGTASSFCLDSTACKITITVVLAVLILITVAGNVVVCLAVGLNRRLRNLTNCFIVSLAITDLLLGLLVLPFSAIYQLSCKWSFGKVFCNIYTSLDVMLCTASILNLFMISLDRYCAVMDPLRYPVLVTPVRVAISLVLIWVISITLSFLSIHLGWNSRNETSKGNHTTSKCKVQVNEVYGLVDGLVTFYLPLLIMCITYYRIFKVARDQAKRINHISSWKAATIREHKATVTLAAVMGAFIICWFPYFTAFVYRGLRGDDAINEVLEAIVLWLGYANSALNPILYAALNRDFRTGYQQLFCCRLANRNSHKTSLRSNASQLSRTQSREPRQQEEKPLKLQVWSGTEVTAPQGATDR
Chain of Histamine H4 receptor (Q9H3N8 whole entry): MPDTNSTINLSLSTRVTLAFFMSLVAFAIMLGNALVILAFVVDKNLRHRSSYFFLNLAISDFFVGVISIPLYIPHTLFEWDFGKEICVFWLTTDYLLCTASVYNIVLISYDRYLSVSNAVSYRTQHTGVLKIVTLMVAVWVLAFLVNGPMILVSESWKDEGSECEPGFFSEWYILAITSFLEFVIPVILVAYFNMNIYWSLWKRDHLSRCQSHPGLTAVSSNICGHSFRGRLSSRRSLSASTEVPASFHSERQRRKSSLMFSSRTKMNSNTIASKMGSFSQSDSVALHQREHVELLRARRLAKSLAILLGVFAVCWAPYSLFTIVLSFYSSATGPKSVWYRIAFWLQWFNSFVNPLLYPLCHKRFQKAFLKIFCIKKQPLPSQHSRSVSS

| SMILES | Ki (Histamine H3 receptor [1]) [nM] | Ki (Histamine H1 receptor) [nM] | Ki (Histamine H2 receptor) [nM] | Ki (Histamine H3 receptor [2]) [nM] | Ki (Histamine H4 receptor) [nM] | Ratio Ki (Homo sapiens [3]) | Ratio Ki (Homo sapiens [4]) | Ratio Ki (Homo sapiens [5]) | pKb (Histamine H3 receptor [6]) | Kobs (Histamine H3 receptor [7]) [min⁻¹] | TIME (Histamine H3 receptor [8]) [h] | K (Histamine H3 receptor [9]) [min⁻¹] | TIME (Histamine H3 receptor [10]) [h] | K (Histamine H3 receptor [11]) [M⁻¹ s⁻¹] | Activity (Histamine H3 receptor [12]) | Bmax (disintegrations/minute) (Histamine H3 receptor [13]) | Ki (Histamine H3 receptor [14]) [nM] | Kd (Histamine H3 receptor [15]) [nM] | Kd (Histamine H3 receptor [16]) [nM] | Kd (Histamine H3 receptor [14]) [nM] |
| --- | --- | --- | --- | --- | --- | --- | --- | --- | --- | --- | --- | --- | --- | --- | --- | --- | --- | --- | --- | --- |
| CCC(=O)NC1CCN(Cc2ccc(OCCCN3CCCCC3)cc2)CC1 | 0.275 | > 100000 | > 100000 | 0.282 | > 100000 | > 100 | > 100 | > 100 | 9.39 | 0.18 | 0.102 | 0.07 | 0.241 | 3.67e+06 | inactive | 1670 | 0.288 | – | – | – |
| [3H]C([3H])([3H])C([3H])([3H])C(=O)NC1CCN(Cc2ccc(OCCCN3CCCCC3)cc2)CC1 | – | – | – | – | – | – | – | – | – | – | – | – | – | – | – | – | – | 0.562 | 0.324 | 0.513 |
| N=C(N)SCCc1cnc[nH]1 [IMETIT] | – | – | – | 5.75 | – | – | – | – | – | – | – | – | – | – | – | – | 28.2 | – | – | – |
